Results on five compounds are retold here after US12383500B2, “Nanoliposome compositions and methods of using the same” (United States Government as represented by the Department …, priority 2018, dated 2025).

The test system of one data set is NFκB. In words: NFκB activation (phosphorylated NFκB) in ECs, Western blot. Type of data set: cell-based, human. The note with it: post-exposure to medin. The method, then: (§1) Endothelial cell immune activation. Primary culture human umbilical vein ECs (passages 4-8, Lonza, Walkersville MD) were seeded into 6-well plates and grown to full confluence. Human umbilical vein ECs have been extensively used to study vascular cell behavior in neurodegenerative disease studies such as AD and VaD as they show similarity in properties as brain ECs, including Aβ metabolism^23, 24, expression of tight junction proteins^25 and metabolic interactions with neural cells^26. ECs were exposed to 20 hours of vehicle or medin (5 μM, dose chosen as this was the mean medin concentration found in human vascular tissue) without or with NLGM1 (300 μM). Additional replicates were also treated with NLGM1 (300 μM) plus transcription factor nuclear factor erythroid 2-related factor 2 (Nrf2) inhibitor brusatol (1 μM). EC immune activation was assessed using gene and protein expressions of inflammation-related cytokines/chemokines interleukin (IL)-8, IL-6, intercellular adhesion molecule (ICAM)-1) and plasminogen activator inhibitor (PAI)-1 (primers from IDT DNA Technologies, Coralville IL)^6, 16. Following lysis, RNA was extracted and converted to cDNA using Aurum Total RNA Mini Kit and iScript cDNA synthesis kit (Bio-Rad Laboratories, Coralville IA) with β-actin as reference normalization gene normalization. […] The conditioned cell media from treated ECs were analyzed for IL-8 and IL-6 protein by enzyme linked immunosorbent assay (ELISA) using DuoSet kit (R&D Systems, Minneapolis MN). ICAM-1 protein was measured from whole cell lysate using ICAM-1 ELISA kit (R&D Systems). PAI-1 and phosphorylated NFκB (phospho-NFκB p65, Ser536, 93H1) proteins were measured using Western blot (1:500, Cell Signaling Technology, Danvers MA).

Data set [1] relates to human umbilical vein ECs. Briefly: Endothelial cell oxidative stress (superoxide, dihydroethidium fluorescence). In kind it is cell-based.
The next data set deals with Human primary astrocytes. Briefly: Astrocyte monoculture IL-8 production. In kind it is cell-based. The conditions noted are these: astrocytes exposed 20 hours to conditioned media from medin (5 μM)-treated ECs. The method, then:
Astrocyte monoculture. Human primary astrocytes (passage 3, Gibco, Madison WI) were seeded in gelatin matrix (4×10^4 cells/cm^2) coated plates, allowed to attach overnight and exposed for 20 hours to vehicle, medin (5 μM), conditioned media from vehicle-treated ECs (10% vol/vol exchange) or conditioned media from medin (5 μM)-treated ECs. Conditioned media IL-8 were measured by ELISA.

Data set [2] relates to human umbilical vein ECs. In words: Endothelial cell immune activation (gene and protein expression of IL-8, IL-6, ICAM-1, PAI-1). In kind it is cell-based. Here is the method: as §1
The test system of data set [3] is human adipose and leptomeningeal arterioles. In words: Endothelial function of human arterioles exposed to medin. The conditions noted are these: medin 1 μM; Aβ42 0.5 μM.
For a further data set, the system named is Nrf2. Briefly: Nuclear Nrf2, HO-1 and NQO1 protein in ECs, Western blot. Type of data set: cell-based, human. The method, then:
Activated Nrf-2 protein was measured by separating the nuclear from cytosolic components using NE-PER Nuclear and Cytoplasmic Extraction kit (Thermo Scientific, Rockford IL) and using anti-Nrf2 primary antibody (1:500, Cell Signaling) on nuclear proteins using Western blot with tubulin as loading control. Heme oxygenase (HO)-1 and NAD(P)H Quinone dehydrogenase 1 (NQO1) proteins were measured from whole cell lysates using anti-HO-1 (1:1000, Cell Signaling Technology) and anti-NQO1 (1:1000, Cell Signaling) primary antibodies.
On the technique in general: Immunoblotting shows a protein as a band on a membrane.

Data set [4] deals with Human primary astrocytes with human umbilical vein ECs. In words: 3D chip astrocyte and endothelial cell coculture IL-8. In kind it is cell-based. The conditions noted are these: medin treated chips with ECs compared to medin treated chips without ECs; 20 hours. The source says: Microfluidic chip fabrication and 3D chip astrocyte and endothelial cell coculture. The microfluidic platform was fabricated in polydimethylsiloxane (PDMS) using standard SU-8 photolithography and replica molding technique, consisting of two side channels for seeding of endothelial cells (ECs) and a central region for astrocyte culture. The dimensions of the side channels' (length, width and height, are 4 mm, 250 μm and 200 μm respectively. The width of the 3D central region is 2 mm Elliptical micro-posts were localized within the central tissue region (500 um width, 100 um height) with specific micro-post spacing to optimize alignment of the astrocytes, while maintaining cellular connectivity and paracrine signaling. Creation of the master silicon wafer through photolithography was executed through spin-coating of SU-8 on a wafer to a height of 200 μm. The wafer was soft-baked, then exposed to UV through a transparent photomask with the chip design. After post-baking, the developed wafer was used as the substrate for soft lithography with PDMS replica molding. A PDMS base: curing agent ratio of 10:1 was used. Then, the PDMS channels were bonded to glass slides through oxygen plasma. […]
Human umbilical vein ECs were seeded into the side channels (2×10^6 cells/mL in EC media) overnight. […] Conditioned media IL-8 were measured using ELISA.

For data set [5], the system named is human umbilical vein ECs. In kind it is cell-based. The note with it: medin + NLGM1 + brusatol (1 μM).
The test system of data set [6] is adipose arterioles exposed to amyloid LC proteins. Briefly: Endothelial function (max response to acetylcholine) of adipose arterioles exposed to amyloid LC proteins. The arrangement: species or system human. The note with it: NLs conjugated with clusterin (300 ng/mL), control 91.6±2%. The method, then: Attempts to formulate NLs (cholesterol and phosphatidylcholine) that are conjugated with clusterin (300 ng/mL), both non-covalently as well as covalently through PEGylation, was successful.

The test system is the same in data set [7]. The conditions noted are these: LC from AL light chain amyloidosis patients; cited from earlier work.
The mark [8] stands for this setting: ECs 20 hours, medin 5 μM without or with co-treatment.
Setting [9] is: ECs 20 hours, medin 5 μM without or with co-treatment, ELISA of conditioned media.
[10] abbreviates: medin + NLGM1 + brusatol (1 μM).

Turning to “medin: recombinant 50-amino acid amyloid peptide, cleavage product of milk fat globule-EGF factor 8 protein”, in the data set with NFκB, the “NFκB activation (phosphorylated NFκB) in ECs, peak” value worked out at 1 h; the “NFκB activation (phosphorylated NFκB) in ECs, persistence” value came out at 20 h; the “NFκB activation (phosphorylated NFκB) in ECs, start” value was 15 min. Also, in the data set with human umbilical vein ECs [1] (ECs 20 hours, medin without or with NLGM1), the EC superoxide production result is on record as “increased”. In addition, the “astrocyte IL-8 production” value in the data set with Human primary astrocytes was “significant increase”. Also, in the data set on human umbilical vein ECs [2] (setting [8]), the “EC ICAM-1 gene expression” value was “increased”, the “EC IL-6 gene expression” value was “increased”, the “EC IL-8 gene expression” value is on record as “increased” and the “EC PAI-1 gene expression” value is “increased”. Also, in the data set on human umbilical vein ECs [2] (setting [9]), the “EC IL-6 protein expression” value is “increased” and the “EC IL-8 protein expression” value is reported as “increased”. The “EC ICAM-1 protein expression” value with human umbilical vein ECs [2] (ECs 20 hours, medin 5 μM without or with co-treatment, ELISA of whole cell lysate) was “increased”. Moreover, in the data set with human umbilical vein ECs [2] (ECs 20 hours, medin 5 μM without or with co-treatment, Western blot), the “EC PAI-1 protein expression” value is “increased”. For the same compound, the “endothelial and smooth muscle dysfunction compared to control response” value in [3] is listed as “caused endothelial, but not smooth muscle dysfunction”. Further, the “nuclear Nrf2 (Nrf2 activation)” value in the data set on Nrf2 (ECs treated with the substance alone) is reported as “no accompanying Nrf2 activation”. Besides, the “astrocyte media IL-8” value in data set [4] is listed as “significantly higher”.

`[O-][S+](c1ccccc1)c1ccc2nnnn2n1` (stereo not shown) [RO106-9920, reference compound]: in the data set on human umbilical vein ECs [2] (setting [8]), the “EC ICAM-1 gene expression” value is given as “abolished”, the “EC IL-6 gene expression” value is listed as “abolished”, the “EC IL-8 gene expression” value was “abolished” and the “EC PAI-1 gene expression” value is “abolished”.

brusatol: in the data set with human umbilical vein ECs [5], the “protective effect of NLGM1 in terms of cell viability” value is “reversed”. In the data set on human umbilical vein ECs [1] (setting [10]), the “protective effect of NLGM1 on medin-induced superoxide production” value is listed as “abolished”. Further, the “protective effect of NLGM1 against medin-induced EC immune activation” value in the data set with human umbilical vein ECs [2] (medin + NLGM1 + brusatol (1 μM), FIG. 8H-K) is reported as “did not abolish”. Besides, in the data set on Nrf2 (setting [10]), the “increase in HO-1 by NLGM1 co-treatment with medin” value is given as “abolished” and the “increase in NQO1 by NLGM1 co-treatment with medin” value is recorded as “abolished”.

Consider Aβ42: beta amyloid peptide, for which the “endothelial and smooth muscle dysfunction compared to control response” value in data set [3] was “caused endothelial, but not smooth muscle dysfunction”.

On to “free clusterin: 80-kDa chaperone glycoprotein; sCLU isoform, commercial human recombinant clusterin protein”, for which, in data set [6], the “max response to acetylcholine” value worked out at 86.4±3.9%. Further, the “endothelial dysfunction in human arterioles exposed to amyloidogenic light chain (LC) proteins” value in data set [7] is listed as “reversed”.
